Measurements as given in article PMC6916368, “Cell‐Based Optimization of Covalent Reversible Ketoamide Inhibitors Bridging the Unprimed to the Primed Site of the Proteasome β5 Subunit” (Chemmedchem, 2019).

Columns and labels:
[1] = molecular target: T1, β2c subunit of isolated human 20S proteasome (Homo sapiens, UniProt Q99436); experiment: Proteasome inhibition assay (20 S Proteasome Assay Kit, Bz‐VGR‐AMC); type: biochemical; conditions: c = 1 µM, n=1; read-out: Inhibition cCP β2
T1 construct: purchased Enzo Life Sciences
Method in brief: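 Isolated 20S proteasome (200 ng/well) was preincubated 30 min with inhibitor, then Bz-VGR-AMC (100 μM final) was added for 60 min and fluorescence read. Single-point residual activity was taken at 100 nM or 1 μM; IC50 was fitted from duplicates, mean of three independent experiments.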

Danio rerio embryos = experiment: Danio rerio embryo toxicity assay (not dechorionated); type: in vivo
Protocol: Danio rerio embryo toxicity assay. Fish keeping protocols are approved by the Darmstadt administrative authority and documented. All fish were treated humanely. […] Embryos were decollated into separate wells containing a total volume of 200 μL and the inhibitor at the given concentration.

[2] = molecular target: T2, β5i subunit of isolated human 20S proteasome (Homo sapiens, UniProt P28062); experiment: Proteasome inhibition assay (20 S Proteasome Assay Kit, Suc‐LLVY‐AMC); type: biochemical; conditions: for inhibition at 1 µM: c = 1 µM, n=1, read-out: Inhibition iCP β5; for inhibition at 0.1 µM: c=100 nM, read-out: Rel. Inhibition β5i; for IC50: purified proteasome
T2 construct: purchased Enzo Life Sciences
Method in brief: (§1)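 Isolated human 20S proteasome (200 ng/well) preincubated 30 min with inhibitor, then 100 μM final Suc-LLVY-AMC (β5c, β5i) or Z-LLE-AMC (β1c) added for 60 min; fluorescence read. Residual activity at 100 nM final (n=3; β5c, β5i) or 1 μM (n=1, incl. β1c). IC50s: technical duplicates, mean of three experiments.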

[3] = molecular target: T3, β5c subunit of isolated human 20S proteasome (Homo sapiens, UniProt P28074); experiment: as above; type: biochemical; conditions: for inhibition at 1 µM: c = 1 µM, n=1, read-out: Inhibition cCP β5; for inhibition at 0.1 µM: c=100 nM, read-out: Rel. Inhibition β5c; for IC50: purified proteasome; for Fold‐IC50 β5i/β5c: selectivity β5c over β5i
T3 construct: purchased Enzo Life Sciences
Method in brief: as §1

[4] = molecular target: T4, β1c subunit of isolated human 20S proteasome (Homo sapiens, UniProt P28072); experiment: Proteasome inhibition assay (20 S Proteasome Assay Kit, Z‐LLE‐AMC); type: biochemical; conditions: c = 1 µM, n=1; read-out: Inhibition cCP β1
T4 construct: purchased Enzo Life Sciences
Method in brief: as §1

THP‐1 cells [5] = type: cell-based
Protocol: (§2) Remarkably, in THP‐1 cells the initial cytotoxicity is increasing for 3 compared to 27 until 14 h treatment (9‐fold) but is approaching to the end of the assay.
(§3) Time‐dependent determination of cell viability. For the determination of time‐dependent cytotoxic activity 5.000 cells per well were plated in a white 384 well‐plate in RPMI‐1640 medium supplemented with 0.1 % FBS. Real‐Time Glo MT cell viability assay (Promega) and inhibitor were added to the final concentration and luminescence was determined using a Tecan M1000 microplate reader at the time points indicated (SI chapter 2b, Figure S9–S17, Table S2).

in vitro = type: cell-based; conditions: human
Protocol: as §2, §3

Jurkat cells = experiment: Cell viability endpoint assay (Celltiter Blue, 72 h); type: cell-based; conditions: Homo sapiens, mean±SD from two independent experiments
Method in brief: (§4)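 Proteasome inhibitors were tested at 1 nM to 10 μM final on 50.000 cells/well in RPMI-1640 with 0.1 % FBS, plated overnight beforehand, at 37 °C and 5 % CO2. Reagent was incubated 120 minutes before the fluorescence read. IC50 came from a sigmoidal fit of technical triplicates, as the mean of two independent experiments.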

MV4‐11 cells = experiment: as above; type: cell-based; conditions: Homo sapiens, MV4-11, mean±SD from two independent experiments
Method in brief: as §4

THP‐1 cells [6] = experiment: as above; type: cell-based; conditions: Homo sapiens, mean±SD from two independent experiments
Method in brief: as §4

[7] = test system: proteasome in MV4‐11 cells; experiment: In‐cell determination of proteasome IC50 (conversion of substrate 30); type: cell-based; conditions: MV4-11, without pre‐incubation
Protocol: In‐cell determination of proteasome IC 50. […] Substrate was added to give a final concentration of 30 μM and substrate conversion was detected by fluorescence measurement over 100 min (assay validation) or 60 min (inhibition assays) using a Tecan M1000 microplate reader. Rate of fluorescence change over time was calculated, rates for negative (no‐cell) control was subtracted and normalized to positive control (no inhibitor).

Row | Compound | inhibition at 1 µM [1] | Survival of embryos (not dechorionated) (Danio rerio embryos; 1 µM, 24 h) | Survival of embryos (not dechorionated) (Danio rerio embryos; 1 µM, 48 h) | Survival of embryos (not dechorionated) (Danio rerio embryos; 1 µM, 72 h) | Survival of embryos (not dechorionated) (Danio rerio embryos; 1 µM, 96 h) | Survival of embryos (not dechorionated) (Danio rerio embryos; 5 µM, 24 h) | Survival of embryos (not dechorionated) (Danio rerio embryos; 5 µM, 48 h) | Survival of embryos (not dechorionated) (Danio rerio embryos; 5 µM, 72 h) | Survival of embryos (not dechorionated) (Danio rerio embryos; 5 µM, 96 h) | Survival of embryos (not dechorionated) (Danio rerio embryos; 10 µM, 24 h) | Survival of embryos (not dechorionated) (Danio rerio embryos; 10 µM, 48 h) | Survival of embryos (not dechorionated) (Danio rerio embryos; 10 µM, 72 h) | Survival of embryos (not dechorionated) (Danio rerio embryos; 10 µM, 96 h) | Survival of embryos (not dechorionated) (Danio rerio embryos; 25 µM, 24 h) | Survival of embryos (not dechorionated) (Danio rerio embryos; 25 µM, 48 h) | Survival of embryos (not dechorionated) (Danio rerio embryos; 25 µM, 72 h) | Survival of embryos (not dechorionated) (Danio rerio embryos; 25 µM, 96 h) | inhibition at 1 µM [2] | inhibition at 0.1 µM [2] | inhibition at 1 µM [3] | also measured
1 | CC(C)C[C@H](NC(=O)[C@H](CCc1ccccc1)NC(=O)CN1CCOCC1)C(=O)N[C@@H](Cc1ccccc1)C(=O)N[C@@H](CC(C)C)C(=O)[C@@]1(C)CO1 [Carfilzomib 3, Carfilzomib] | 37% | 100% | 100% | 100% | 100% | 100% | 100% | 100% | 100% | 100% | 100% | 100% | 100% | 100% | 100% | 100% | 100% | 91% | 43% | 96% | inhibition at 0.1 µM [3]: 86%; inhibition at 1 µM [4]: -18%; cytotoxicity of 3 compared to 27 (THP‐1 cells [5]): 9 fold; IC50 at 13 h (in vitro): 50 to 400 nM; IC50 (Jurkat cells): 14 ± 3 nM; IC50 (MV4‐11 cells): 3.6 ± 1.8 nM; IC50 (THP‐1 cells [6]): 135 ± 39 nM
2 | Cc1ccc(NC(=O)C(=O)C(CC(C)C)NC(=O)C(CC(C)C)NC(=O)C(CC(C)C)NC(=O)OCc2ccccc2)c(C)c1 (stereo not drawn) [Compound 7, BSc4999] | 9% | 100% | 100% | 100% | 100% | 100% | 100% | 100% | 100% | 100% | 100% | 100% | 100% | 80% | 80% | 80% | 80% | 74% | 33% | 92% | fold more potent than 9 (in-cell conversion of 30) [7]: 4 fold; IC50 [2]: 204 nM; inhibition at 0.1 µM [3]: 64%; IC50 [3]: 48 nM; Fold‐IC50 β5i/β5c [3]: 4.3; inhibition at 1 µM [4]: -26%; IC50 (Jurkat cells): 30 ± 0.3 nM; IC50 (MV4‐11 cells): 19 ± 3 nM; IC50 (THP‐1 cells [6]): 24 ± 0.1 nM
3 | CC(C)C[C@H](NC(=O)OCc1ccccc1)C(=O)N[C@@H](CC(C)C)C(=O)N[C@@H](CC(C)C)C(=O)C(=O)Nc1cccc(Oc2ccccc2)c1 [Compound 9, Benzyl‐((S)‐4‐methyl‐1‐(((S)‐4‐methyl‐1‐(((S)‐5‐methyl‐1,2‐dioxo‐1‐((3‐phenoxyphenyl)‐amino)hexan‐3‐yl)amino)‐1‐oxopentan‐2‐yl)amino)‐1‐oxopentan‐2‐yl)carbamate] | 9% | 100% | 100% | 100% | 100% | 100% | 100% | 100% | 100% | 100% | 100% | 100% | 100% | 100% | 100% | 100% | 100% | 31% | 23% | 81% | IC50 [2]: 170 nM; inhibition at 0.1 µM [3]: 56%; IC50 [3]: 66 nM; Fold‐IC50 β5i/β5c [3]: 2.6; inhibition at 1 µM [4]: 0%; IC50 (Jurkat cells): 24 ± 4 nM; IC50 (MV4‐11 cells): 18 ± 3 nM; IC50 (THP‐1 cells [6]): 30 ± 10 nM
